Eight compounds from US5543396A, “Proline phosphonate derivatives” (priority 1994, dated 1996) can be followed below.

Bounds are passed on as bounds.

A short description of data set [1]: Half-lives for spontaneous hydrolysis of inhibitors in buffer. Type of data set: physicochemical. As to conditions: 0.05 M Tris, pH 7.8 buffer, 8% Me2SO, 23° C. From the text:
Determination of Half-Lives for Spontaneous Hydrolysis of Inhibitors in Buffer. […] The spontaneous hydrolysis was monitored by following the increase in absorbance at 270 nm for phosphonates with phenoxy groups, at 280 nm for compounds with 4-.chlorophenoxy groups or at 277 nm for the 4-fluorophenoxy derivative. Half-lives were obtained from first-order plots of ln (Af -At) vs time, where At is the absorbance of the mixture at time t, and Af is the final absorbance of phosphonate monophenyl ester and phenol (or corresponding compounds). This was obtained from the absorbance of the solution which had remained constant for a few hours. All the plots gave correlation coefficients of 0.95 or greater.

The target in data set [2] is T1, Human Placenta DPP-IV (Homo sapiens, UniProt P27487).
T1 construct: from tissue; host or cells: human placenta
T1 sequence (P27487 whole entry): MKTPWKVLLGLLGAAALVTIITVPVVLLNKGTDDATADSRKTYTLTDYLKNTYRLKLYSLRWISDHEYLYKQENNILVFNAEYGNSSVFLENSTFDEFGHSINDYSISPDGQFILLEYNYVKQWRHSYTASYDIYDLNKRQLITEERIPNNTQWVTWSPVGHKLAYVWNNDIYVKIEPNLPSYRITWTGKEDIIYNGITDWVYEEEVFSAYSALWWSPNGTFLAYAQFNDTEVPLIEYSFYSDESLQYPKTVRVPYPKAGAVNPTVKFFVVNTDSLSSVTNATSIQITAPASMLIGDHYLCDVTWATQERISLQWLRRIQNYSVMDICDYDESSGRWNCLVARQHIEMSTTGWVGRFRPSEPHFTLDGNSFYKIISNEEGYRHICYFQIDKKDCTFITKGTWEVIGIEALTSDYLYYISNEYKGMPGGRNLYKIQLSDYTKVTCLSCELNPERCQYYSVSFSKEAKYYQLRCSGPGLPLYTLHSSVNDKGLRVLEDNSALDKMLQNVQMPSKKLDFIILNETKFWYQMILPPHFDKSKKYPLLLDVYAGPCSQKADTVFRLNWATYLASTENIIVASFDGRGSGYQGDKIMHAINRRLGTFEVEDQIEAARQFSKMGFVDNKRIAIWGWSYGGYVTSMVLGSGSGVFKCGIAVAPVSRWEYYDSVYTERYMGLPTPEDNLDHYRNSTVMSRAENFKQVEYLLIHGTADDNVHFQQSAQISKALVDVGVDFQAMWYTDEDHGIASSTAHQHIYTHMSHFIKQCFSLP
The experiment in a line: Inhibition of DPP-IV by peptidyl phosphonates, incubation method. The format is biochemical. The settings on record: for % Inhibition 2 min / % Inhibition 30 min: [I] 0.12 mM, 0.05 M Tris pH 7.8, 5% Me2SO, substrate TFA.Ala-Pro-AFC 0.190 mM; for % Inhibition 2 min / % Inhibition 30 min / kobs /[I] for DPP-IV: 23° C.; for kobs /[I] for DPP-IV: [I] 0.42 mM, 0.05 M Tris pH 7.8, 8% Me2SO, substrate TFA.Ala-Pro-AFC 0.2 mM; for inhibition of DPP-IV, in words: inhibitor 0.12 mM. The method, then: Standard Assay of DPP-IV. DPP-IV was assayed in 450 μL of 50 mM Tris, pH 7.8, 0.2 mM Ala-Pro-AFC (freshly diluted from a 20 mM stock in DMF), and 5 μL of enzyme solution at 30° C. or in 2 mL of buffer, 0.2 mM Ala-Pro-AFC (diluted from 8 mM stock in Me2 SO) at 23° C. Fluorescence was measured at 400 nm excitation and 505 nm emission. One unit of DPP-IV is defined as the amount of enzyme that will hydrolyze 1.0 μmole of Ala-Pro-AFC per min at 25° C. and pH 7.8.
Enzyme Irreversible Inactivation--Incubation Method. An aliquot of inhibitor (25 or 50 μL) in Me2 SO was added to 0.28-0.55 mL of a buffered enzyme solution (0.83 munits for DPP-IV; 2.1 units for acetylcholinesterase; 0.07-4.5 μM for other enzymes) to initiate the inactivation reaction. Aliquots (20-250 μL) were withdrawn at various intervals and the residual enzymatic activity was measured at 23° C. as described below. The buffers were: 0.05M Tris, pH 7.8 for DPP-IV; 0.1M Hepes, 0.01M CaCl2, pH 7.5 for bovine trypsin; 0.1M Hepes, 0.5M NaCl, pH 7.5 for bovine chymotrypsin, PPE, and HLE; 0.1M phosphate, pH 7.5 for acetylcholinesterase; 50 mM Tris-HCl, 2 mM EDTA, 5 mM cysteine, (freshly prepared) pH 7.5 buffer for papain and 100 mM KH2 PO4, 1.33 mM EDTA, 2.7 mM cysteine (freshly prepared), pH 6.0 buffer for cathepsin B. […] The inhibitor concentrations are shown in the appropriate table. Stock solutions of substrates were prepared in Me2 SO and stored at -20° C. DPP-IV was assayed with TFA.Ala-Pro-AFC. Papain and cathepsin B were assayed with Bz-Arg-AMC and Z-Arg-Arg-AMC, respectively. The release of AMC were followed fluorometrically (excitation at 380 nm and emmision at 460 nm for AMC). Acetylcholinesterase was assayed with acetylthiocholine iodide in the presence of DTNB at 412 nm. Trypsin was assayed with Z-Phe-Gly-Arg-.rho.NA.HCl (0.09 mM), chymotrypsin was assayed with Suc-Phe-Thr-Phe-.rho.NA (0.48 mM), PPE and HLE were assayed with Suc-Ala-Ala-Ala-.rho.NA (0.44 mM) and MeO-Suc-Ala-Ala-Pro-Val-.rho.NA (0.24 mM), respectively. Peptide .rho.-nitroanilide hydrolysis was measured at 410 nm (ε410 =8,800 M ^1 cm^-1). Pseudo first-order inactivation rate constants (kobs) were obtained from plots of In vt /vo vs time, and the correlation coefficients were greater than 0.98.

In data set [3] the target is DPP-IV (Homo sapiens, UniProt P27487). The experiment in a line: Stability of inhibited DPP-IV. As to conditions: for recovery of enzyme activity of inhibited DPP-IV: after 24 h, excess inhibitor removed by centrifugation; for DPP-IV enzyme activity found after incubation with inhibitor: inhibitor 0.042-0.42 mM, pH 7.8 buffer, incubation for 1 h.
Sequence of DPP-IV (P27487 whole entry): as above
Protocol: Excess inhibitors in the inhibited enzyme solution were removed by centrifugation of the diluted enzyme solution twice using Amicon microconcentrators.
Stability of Inhibited DPP-IV. […] Excess inhibitors was removed from diluted solutions of inactivated enzyme by centrifugation three times at 0° C. for 1 h each in Amicon Centricon-10 microconcentrators following addition of buffer. The enzyme activity of solution was assayed at various intervals as described above.
Data set [4] has as its target Chymotrypsin (Bos taurus, UniProt P00766). The experiment in a line: Inhibition of chymotrypsin, incubation method. The format is biochemical, bovine. The method, then:
Inactivation rates of serine proteases by aryl diesters of peptidyl derivatives of α-aminoalkylphosphonates were measured by the incubation method. An aliquot of inhibitor (25 or 50 μl) in Me2 SO was added to a buffered enzyme solution (0.01-2.3 μM) to initiate the inactivation. Aliquots (50 μl) were withdrawn at various intervals and the residual enzymatic activity was measured. Me2 SO concentration in the reaction mixture was 8-12% (v/v). A 0.1M HEPES, 0.01M CaCl2, pH 7.5 buffer was utilized for trypsin and trypsin-like enzymes. A 0.1M HEPES, 0.5M NaCl, pH 7.5, was utilized for the other serine proteases. Peptide thioesters or peptide nitroanilides with the appropriate sequences were used as substrates for various serine proteases. All peptide thioesters hydrolysis rates were measured with the assay mixture containing 4,4'-dithiodipyridine (ε324 =19800M^-1 cm^-1). Peptide 4-nitroanilide hydrolysis was measured at 410 nm (ε410 =8800 M ^-1 cm^-1). First order inactivation rate constants (kobs) were obtained from plots of ln vt /vo vs time, and the correlation coefficients were greater then 0.98.
Enzyme Irreversible Inactivation--Incubation Method. An aliquot of inhibitor (25 or 50 μL) in Me2 SO was added to 0.28-0.55 mL of a buffered enzyme solution (0.83 munits for DPP-IV; 2.1 units for acetylcholinesterase; 0.07-4.5 μM for other enzymes) to initiate the inactivation reaction. Aliquots (20-250 μL) were withdrawn at various intervals and the residual enzymatic activity was measured at 23° C. as described below. The buffers were: 0.05M Tris, pH 7.8 for DPP-IV; 0.1M Hepes, 0.01M CaCl2, pH 7.5 for bovine trypsin; 0.1M Hepes, 0.5M NaCl, pH 7.5 for bovine chymotrypsin, PPE, and HLE; 0.1M phosphate, pH 7.5 for acetylcholinesterase; 50 mM Tris-HCl, 2 mM EDTA, 5 mM cysteine, (freshly prepared) pH 7.5 buffer for papain and 100 mM KH2 PO4, 1.33 mM EDTA, 2.7 mM cysteine (freshly prepared), pH 6.0 buffer for cathepsin B. The Me2 SO concentration in the reaction mixtures was 8-9% (v/v). The inhibitor concentrations are shown in the appropriate table. Stock solutions of substrates were prepared in Me2 SO and stored at -20° C. DPP-IV was assayed with TFA.Ala-Pro-AFC. Papain and cathepsin B were assayed with Bz-Arg-AMC and Z-Arg-Arg-AMC, respectively. The release of AMC were followed fluorometrically (excitation at 380 nm and emmision at 460 nm for AMC). Acetylcholinesterase was assayed with acetylthiocholine iodide in the presence of DTNB at 412 nm. Trypsin was assayed with Z-Phe-Gly-Arg-.rho.NA.HCl (0.09 mM), chymotrypsin was assayed with Suc-Phe-Thr-Phe-.rho.NA (0.48 mM), PPE and HLE were assayed with Suc-Ala-Ala-Ala-.rho.NA (0.44 mM) and MeO-Suc-Ala-Ala-Pro-Val-.rho.NA (0.24 mM), respectively. Peptide .rho.-nitroanilide hydrolysis was measured at 410 nm (ε410 =8,800 M ^1 cm^-1). […]

On to `C[C@H](N)C(=O)N1CCCC1P(=O)(Oc1ccccc1)Oc1ccccc1.Cl` (stereo partly drawn) [Compound 6, Diphenyl Alanylpyrrolidine-2-phosphonate Hydrochloride], for which the “t1/2, half-life for hydrolysis” value in data set [1] is 23.1 h. In addition, the “% Inhibition 2 min” value in data set [2] (2 min incubation) is 0%. Besides, in data set [2] (30 min incubation), the “% Inhibition 30 min” value is reported as 33% and the “inhibition of DPP-IV, in words” value is “showed some inhibitory potency”. The “kobs /[I] for DPP-IV” value in data set [2] worked out at 1.2 M⁻¹ s⁻¹. In data set [3], the “recovery of enzyme activity of inhibited DPP-IV” value (from here on “recovery … of inhibited DPP-IV”) is given as “did not regain enzyme activity” and the “DPP-IV enzyme activity found after incubation with inhibitor” value amounted to 30%.
Regarding `CC(=O)O.C[C@H](N)C(=O)N1CCCCC1P(=O)(Oc1ccccc1)Oc1ccccc1` (stereo partly drawn) [Compound 7, Diphenyl Alanylpiperidine-2-phosphonate Acetate], in data set [1], the “t1/2, half-life for hydrolysis” value is reported as above 72 h. Also, the “% Inhibition 2 min” value in data set [2] (2 min incubation) is 0%. Besides, in data set [2] (30 min incubation), the “% Inhibition 30 min” value was determined as 100% and the “inhibition of DPP-IV, in words” value was “showed some inhibitory potency”. Moreover, in data set [2], the “kobs /[I] for DPP-IV” value is 12.6 M⁻¹ s⁻¹. For the same compound, in data set [3], the “recovery … of inhibited DPP-IV” value was “did not regain enzyme activity” and the “DPP-IV enzyme activity found after incubation with inhibitor” value is “no enzyme activity”.
For the compound `CC(=O)O.C[C@H](N)C(=O)N1CCCCC1P(=O)(O)Oc1ccccc1` (stereo partly drawn) [Compound 8, Monophenyl Alanylpiperidine-2-phosphonate Acetate], the “% Inhibition 2 min” value in data set [2] (2 min incubation) was determined as 0%. Besides, in data set [2] (30 min incubation), the “% Inhibition 30 min” value came out at 0% and the “inhibition of DPP-IV, in words” value was “did not show any inhibition”.
Take `Br.N[C@@H](Cc1ccccc1)C(=O)N1CCCC1P(=O)(Oc1ccccc1)Oc1ccccc1` (stereo partly drawn) [Compound 9, Diphenyl Phenylalanylpyrrolidine-2-phosphonate Hydrobromide]: the “% Inhibition 2 min” value in data set [2] (2 min incubation) worked out at 0%. Besides, in data set [2] (30 min incubation), the “% Inhibition 30 min” value turned out to be 0% and the “inhibition of DPP-IV, in words” value is reported as “did not show any inhibition”.
On to `Br.Br.NCCCC[C@H](N)C(=O)N1CCCC1P(=O)(Oc1ccccc1)Oc1ccccc1` (stereo partly drawn) [Compound 10, Diphenyl Lysylpyrrolidine-2-phosphonate Dihydrobromide], for which, in data set [1], the “t1/2, half-life for hydrolysis” value was found to be 52 h. In addition, the “% Inhibition 2 min” value in data set [2] (2 min incubation) turned out to be 0%. In data set [2] (30 min incubation), the “% Inhibition 30 min” value turned out to be 0% and the “inhibition of DPP-IV, in words” value is reported as “did not show any inhibition”. The “kobs /[I] for DPP-IV” value in data set [2] came out at 1.7 M⁻¹ s⁻¹.
For the compound `Cl.Cl.NCCCC[C@H](N)C(=O)N1CCCCC1P(=O)(Oc1ccccc1)Oc1ccccc1` (stereo partly drawn) [Compound 11, Diphenyl Lysylpiperidine-2-phosphonate Dihydrochloride], the “t1/2, half-life for hydrolysis” value in data set [1] is above 48 h. Also, in data set [2] (2 min incubation), the “% Inhibition 2 min” value came to 35% and the “inhibition of DPP-IV, in words” value is “effectively inhibited”. Also, in data set [2] (30 min incubation), the “% Inhibition 30 min” value was 88% and the “inhibition of DPP-IV, in words” value was “showed some inhibitory potency”. For the same compound, in data set [2], the “kobs /[I] for DPP-IV” value was 4.2 M⁻¹ s⁻¹.
Turning to `C[C@H](N)C(=O)N1CCCC1P(=O)(Oc1ccc(Cl)cc1)Oc1ccc(Cl)cc1.Cl` (stereo partly drawn) [Compound 12, Di(4-chlorophenyl) Alanylpyrrolidine-2-phosphonate Hydrochloride], the “t1/2, half-life for hydrolysis” value in data set [1] stood at 5.3 h. Besides, the “inhibition of chymotrypsin, in words” value in data set [4] is given as “very slowly”. Further, the “kobs /[I] Chymotrypsin” value in data set [4] ([I] 0.42 mM, 0.1 M Hepes, 0.5 M NaCl, pH 7.5, 8-9% Me2SO, 23° C., Suc-Phe-Thr-Phe-pNA 0.48 mM) was determined as 26 M⁻¹ s⁻¹. In data set [2] (2 min incubation), the “% Inhibition 2 min” value is reported as 0%. In addition, in data set [2] (30 min incubation), the “% Inhibition 30 min” value is on record as 100% and the “inhibition of DPP-IV, in words” value is “showed some inhibitory potency”. In addition, in data set [2], the “kobs /[I] for DPP-IV” value was determined as 28 M⁻¹ s⁻¹. Besides, the “recovery … of inhibited DPP-IV” value in data set [3] is “did not regain enzyme activity”.
With `C[C@H](N)C(=O)N1CCCCC1P(=O)(Oc1ccc(F)cc1)Oc1ccc(F)cc1.Cl` (stereo partly drawn) [Compound 14, Di(4-fluorophenyl) Alanyl-piperidine-2-phosphonate Hydrochloride], the “t1/2, half-life for hydrolysis” value in data set [1] is above 68 h. Further, in data set [2], the “kobs /[I] for DPP-IV” value is 12 M⁻¹ s⁻¹. Besides, the “DPP-IV enzyme activity found after incubation with inhibitor” value in data set [3] is “no enzyme activity”.
